Test results as given in PubChem BioAssay (NCI).
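1) Cells in 96-well plates. 2) Compound, 48 h, 5 concentrations. 3) Linear interpolation between surrounding doses. 4) Unreached endpoint = highest concentration. At the GI50, growth is halved. TGI denotes the concentration required for complete inhibition of growth.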

Key:
Assay in all cases: inhibition of tumour cell growth, NCI panel, 48 h
HS 578T breast = tested on: HS 578T breast
HT29 colon = tested on: HT29 colon
BT-549 breast = tested on: BT-549 breast
MCF7 breast = tested on: MCF7 breast
NCI/ADR-RES ovarian = tested on: NCI/ADR-RES ovarian
HOP-62 NSCLC = tested on: HOP-62 NSCLC
SW-620 colon = tested on: SW-620 colon
RPMI-8226 leukemia = tested on: RPMI-8226 leukemia
SK-MEL-28 melanoma = tested on: SK-MEL-28 melanoma
LOX IMVI melanoma = tested on: LOX IMVI melanoma
SR leukemia = tested on: SR leukemia
CAKI-1 renal = tested on: CAKI-1 renal
A498 renal = tested on: A498 renal
MOLT-4 leukemia = tested on: MOLT-4 leukemia
HOP-92 NSCLC = tested on: HOP-92 NSCLC
OVCAR-3 ovarian = tested on: OVCAR-3 ovarian
SNB-19 CNS = tested on: SNB-19 CNS
786-0 renal = tested on: 786-0 renal
T-47D breast = tested on: T-47D breast
SF-268 CNS = tested on: SF-268 CNS
OVCAR-5 ovarian = tested on: OVCAR-5 ovarian
UACC-257 melanoma = tested on: UACC-257 melanoma
COLO 205 colon = tested on: COLO 205 colon
KM12 colon = tested on: KM12 colon
SK-MEL-2 melanoma = tested on: SK-MEL-2 melanoma
TK-10 renal = tested on: TK-10 renal
NCI-H226 lung = tested on: NCI-H226 lung
RXF 393 renal = tested on: RXF 393 renal
SN12C renal = tested on: SN12C renal
OVCAR-8 ovarian = tested on: OVCAR-8 ovarian
HCT-116 colon = tested on: HCT-116 colon
UO-31 renal = tested on: UO-31 renal
OVCAR-4 ovarian = tested on: OVCAR-4 ovarian
A549 NSCLC = tested on: A549 NSCLC
SF-295 CNS = tested on: SF-295 CNS
SK-MEL-5 melanoma = tested on: SK-MEL-5 melanoma
IGROV1 ovarian = tested on: IGROV1 ovarian
UACC-62 melanoma = tested on: UACC-62 melanoma
SF-539 CNS = tested on: SF-539 CNS
DU-145 prostate = tested on: DU-145 prostate
MDA-MB-231 breast = tested on: MDA-MB-231 breast
NCI-H522 lung = tested on: NCI-H522 lung
HL-60(TB) leukemia = tested on: HL-60(TB) leukemia
PC-3 prostate = tested on: PC-3 prostate
M14 melanoma = tested on: M14 melanoma
HCT-15 colon = tested on: HCT-15 colon
K-562 leukemia = tested on: K-562 leukemia
SNB-75 CNS = tested on: SNB-75 CNS
HCC-2998 colon = tested on: HCC-2998 colon
NCI-H460 lung = tested on: NCI-H460 lung
NCI-H23 lung = tested on: NCI-H23 lung
MDA-MB-435 = tested on: MDA-MB-435
CCRF-CEM leukemia = tested on: CCRF-CEM leukemia
ACHN renal = tested on: ACHN renal
EKVX NSCLC = tested on: EKVX NSCLC

## CC(=O)OC1CC2C(C)(C)C(=O)C=C[C@]2(C)C2CC[C@]3(C)C(OCC(=O)[C@H]3c3ccoc3)[C@]12C (stereo not given in full)
HS 578T breast
  GI50: 19.4 µM
  TGI: > 100 µM
HT29 colon
  GI50: 2.76 µM
  TGI: 11.6 µM
BT-549 breast
  GI50: 8.63 µM
  TGI: 57.8 µM
MCF7 breast
  GI50: 6.6 µM
  TGI: 35.7 µM
NCI/ADR-RES ovarian
  GI50: 5.07 µM
  TGI: 22.9 µM
HOP-62 NSCLC
  GI50: 8.29 µM
  TGI: 21.6 µM
SW-620 colon
  GI50: 11.1 µM
  TGI: 39.3 µM
RPMI-8226 leukemia
  GI50: 2.46 µM
  TGI: 6.8 µM
SK-MEL-28 melanoma
  GI50: 4.63 µM
  TGI: 18.5 µM
LOX IMVI melanoma
  GI50: 3.94 µM
  TGI: 14.9 µM
SR leukemia
  GI50: 2.27 µM
  TGI: 14.5 µM
CAKI-1 renal
  GI50: 3.58 µM
  TGI: 23.9 µM
A498 renal
  GI50: 12.7 µM
  TGI: 29.7 µM
MOLT-4 leukemia
  GI50: 3.62 µM
  TGI: 22.1 µM
HOP-92 NSCLC
  GI50: 10.7 µM
  TGI: 35.5 µM
OVCAR-3 ovarian
  GI50: 5.56 µM
  TGI: 22.9 µM
SNB-19 CNS
  GI50: 6.53 µM
  TGI: 21.2 µM
786-0 renal
  GI50: 4.66 µM
  TGI: 21.7 µM
T-47D breast
  GI50: 2.97 µM
  TGI: 15.4 µM
SF-268 CNS
  GI50: 2.82 µM
  TGI: 10.5 µM
OVCAR-5 ovarian
  GI50: 23.9 µM
  TGI: 46.2 µM
UACC-257 melanoma
  GI50: 2.51 µM
  TGI: 15 µM
COLO 205 colon
  GI50: 1.91 µM
  TGI: 8.48 µM
KM12 colon
  GI50: 3.77 µM
  TGI: 12.3 µM
SK-MEL-2 melanoma
  GI50: 13.8 µM
  TGI: 42.3 µM
TK-10 renal
  GI50: 10.4 µM
  TGI: 35.7 µM
NCI-H226 lung
  GI50: 11.8 µM
  TGI: 31.4 µM
RXF 393 renal
  GI50: 4.43 µM
  TGI: 18.8 µM
SN12C renal
  GI50: 8.64 µM
  TGI: 28.6 µM
OVCAR-8 ovarian
  GI50: 8.3 µM
  TGI: 27.6 µM
HCT-116 colon
  GI50: 3.42 µM
  TGI: 11.4 µM
UO-31 renal
  GI50: 10.1 µM
  TGI: 22.6 µM
OVCAR-4 ovarian
  GI50: 4.2 µM
  TGI: 17.2 µM
A549 NSCLC
  GI50: 6.28 µM
  TGI: 23.1 µM
SF-295 CNS
  GI50: 16.5 µM
  TGI: 48.6 µM
SK-MEL-5 melanoma
  GI50: 11.5 µM
  TGI: 28 µM
IGROV1 ovarian
  GI50: 7.83 µM
  TGI: 34.9 µM
UACC-62 melanoma
  GI50: 5.89 µM
  TGI: 21.7 µM
SF-539 CNS
  GI50: 15.2 µM
  TGI: 31.3 µM
DU-145 prostate
  GI50: 3.89 µM
  TGI: 19.8 µM
MDA-MB-231 breast
  GI50: 8.99 µM
  TGI: 29.4 µM
NCI-H522 lung
  GI50: 3.15 µM
  TGI: 10.1 µM
HL-60(TB) leukemia
  GI50: 3.11 µM
  TGI: 17.8 µM
PC-3 prostate
  GI50: 3.88 µM
  TGI: 17.1 µM
M14 melanoma
  GI50: 12.4 µM
  TGI: 27.3 µM
HCT-15 colon
  GI50: 4.19 µM
  TGI: 15.8 µM
K-562 leukemia
  GI50: 2.25 µM
  TGI: 7.04 µM
SNB-75 CNS
  GI50: 4.68 µM
  TGI: 17.1 µM
HCC-2998 colon
  GI50: 11.3 µM
  TGI: 24.7 µM
NCI-H460 lung
  GI50: 3.93 µM
  TGI: 15.2 µM
NCI-H23 lung
  GI50: 8.66 µM
  TGI: 26.5 µM
MDA-MB-435
  GI50: 2.53 µM
  TGI: 8.58 µM
CCRF-CEM leukemia
  GI50: 4.06 µM
  TGI: 16.3 µM
ACHN renal
  GI50: 13.4 µM
  TGI: 31.4 µM
EKVX NSCLC
  GI50: 18 µM
  TGI: > 100 µM
